Results: patent US11324725B2, “Compositions and methods for the inhibition of pruritus” (The United States of America, as represented by the …, priority 2017, dated 2022)

Biological target: T1, mNpr1 (Mus musculus, UniProt P18293)
T1 construct: host or cells: HEK-293, transient co-transfection with pGS-40F
T1 sequence (P18293 29-1057): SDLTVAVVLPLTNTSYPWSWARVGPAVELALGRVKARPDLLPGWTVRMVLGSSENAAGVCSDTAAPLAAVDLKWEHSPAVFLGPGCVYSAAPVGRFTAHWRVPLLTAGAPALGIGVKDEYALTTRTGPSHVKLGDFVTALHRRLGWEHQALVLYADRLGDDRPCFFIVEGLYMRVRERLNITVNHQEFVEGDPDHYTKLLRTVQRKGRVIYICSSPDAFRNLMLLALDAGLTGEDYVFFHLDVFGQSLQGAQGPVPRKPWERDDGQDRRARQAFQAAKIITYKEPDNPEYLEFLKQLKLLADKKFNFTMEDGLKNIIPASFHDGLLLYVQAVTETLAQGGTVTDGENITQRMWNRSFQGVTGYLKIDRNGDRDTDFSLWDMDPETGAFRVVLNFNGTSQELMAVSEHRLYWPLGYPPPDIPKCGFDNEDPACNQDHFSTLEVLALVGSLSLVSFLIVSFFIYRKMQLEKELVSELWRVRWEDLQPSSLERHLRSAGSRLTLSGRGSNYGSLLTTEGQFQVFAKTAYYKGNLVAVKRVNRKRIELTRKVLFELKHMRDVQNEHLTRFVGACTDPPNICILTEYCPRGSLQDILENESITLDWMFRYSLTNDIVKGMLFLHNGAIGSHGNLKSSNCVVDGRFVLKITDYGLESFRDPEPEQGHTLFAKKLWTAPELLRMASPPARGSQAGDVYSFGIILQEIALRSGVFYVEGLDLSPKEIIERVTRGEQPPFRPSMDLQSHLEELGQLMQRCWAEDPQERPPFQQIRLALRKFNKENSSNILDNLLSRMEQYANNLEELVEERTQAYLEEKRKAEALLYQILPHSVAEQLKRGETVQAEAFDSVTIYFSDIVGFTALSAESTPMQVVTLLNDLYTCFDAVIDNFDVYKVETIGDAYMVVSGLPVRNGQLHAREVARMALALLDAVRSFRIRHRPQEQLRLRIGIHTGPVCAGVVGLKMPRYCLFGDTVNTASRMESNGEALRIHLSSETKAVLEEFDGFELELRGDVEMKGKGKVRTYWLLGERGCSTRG
Assay: GloSensor assay, HEK-293 cells transiently expressing mNpr1 and pGS-40F
Type: cell-based
Details: for IC50: 1 nM mNppb 5 minutes after compound, read-out: IC50 [μM] (mean ± SEM), mNpr1; for Ki: calculated with Cheng-Prusoff equation from Table 6, read-out: Ki mNpr1 GloSensor™ [μM] (mean ± SEM)
Experimental: HEK-293 cells (American Type Culture Collection “ATTC,” Manassas, Va.) were cultured in DMEM/F12 supplemented with 2 mM L-glutamine, 10% FBS, 100 U/ml penicillin, and 100 μg/ml streptomycin. For transient expression, 8×10^5 cells were seeded in 6-wells, cultured for 24 hours, and then transfected using TransIT®-293 (Mirus, Madison, Wis.) according to the manufacturer's instructions. After transfection (48 hours), cells were used to measure intracellular cGMP production. HEK-293 cell clones stably expressing pGloSensor™-40F alone (HEK-cGMP-sensor cells) or in addition, human Npr1 (“hNpr1”) (HEK-hNpr1-cGMP-sensor cells) or human Npr2 (HEK-hNpr2-cGMP-sensor cells) were generated by co-transfection with pEAK8-GFP and selection with 1 μg/ml puromycin. Stable expression of transgenes was verified by measuring ligand-induced cGMP production with the cGMP biosensor.
Before the measurement (24 hours in advance), 3×10^4 cells were seeded into white 96-well plates (PerkinElmer, Waltham, Mass.), coated with 0.1% poly(D-lysine), and assays conducted as recommended by the manufacturer (Promega). Medium was aspirated and cells were loaded for two hours at room temperature with 2% GoSensor™ reagent diluted in CO2-independent media (ThermoFisher) supplemented with 2 mM L-glutamine and 10% FBS (assay medium). Luminescence was measured on a BioTek Synergy™ NEO (Winooski, Vt.) plate reader at room temperature. After a baseline measurement of 3-5 minutes, assay medium as a control or assay medium with agonist was manually added, and luminescence was measured for 30 minutes at ˜ 1/60 Hz. For compounds tested for Npr1 and Npr2 inhibition, the compounds were added after baseline measurements, and luminescence was read for 5 minutes before addition of agonist. Luminescence was then normalized to baseline measurements and plotted against the time. Ligand-induced changes of cGMP production were quantified by determining the area under the curve. To determine efficacy and potency of agonists, ligand-induced changes were normalized to medium only addition and plotted against the ligand concentration. […] To quantify […] of compounds, compound-induced changes of agonist-induced cGMP production were normalized to vehicle controls, plotted against compound concentration, and fit with a four-parameter logistic regression. Effects of A-71915 on basal mNpr1 activity were fitted with a bell-shaped regression (equation indicated below).
Because the Npr1 receptor is a ligand-dependent guanylate cyclase, measuring agonist-induced changes in intracellular cGMP levels was used to examine inhibition of Npr1. To measure the production of cGMP by Npr1, a circular permutated Firefly luciferase molecule which was functionally linked to the cGMP binding domain of human PDE5 (GloSensor™ technology pGS-40F) was used, as described in Example 1. This reporter molecule together with a luciferase substrate (GoSensor™ reagent) and a sensitive method for detection of luciferase activity (emitted light) permitted real-time measurement of cGMP levels in live cells (FIG. 1A). The cGMP sensor was expressed in HEK293 cells and luciferase activity after stimulation with the NO-donor sodium nitroprusside (SNP), which activates ubiquitously expressed soluble guanylate cyclases, was examined. […] Next, mNpr1 and the cGMP sensor were transiently expressed in HEK293 cells and agonist dependent receptor activation was examined. […] Next, the effects of A-71915 on mNpr1 were tested.
For Table 6, HEK-293 cells transiently expressing mNpr1 and pGS-40F were stimulated with 1 nM mNppb 5 minutes after addition of candidate compounds or A-71915 and luminescence was measured for 30 minutes. Inhibitors were titrated to calculate apparent IC50 values, as described in methods.

Row | Structure (SMILES) | IC50 [µM] | Ki [µM]
1 | COc1ccc(C2(C(=O)N3CCC4(CC3)c3nccn3-c3ccccc3CN4C)CC2)cc1 [JS-12, (1-(4-methoxyphenyl)cyclopropyl)(5-methyl-5,6-dihydrospiro[benzo[f]imidazo[1,2-a][1,4]diazepine-4,4′-piperidin]-1′-yl)methanone] | 13 ± 0.3 | 0.26 ± 0.006
2 | Cc1cc(CNC(=O)c2ccc3c(c2)n(CC2CC2)c(=O)n3C2CCCCC2)on1 [JS-11, 1-cyclohexyl-3-(cyclopropylmethyl)-N-((3-methylisoxazol-5-yl)methyl)-2-oxo-2,3-dihydro-1H-benzo[d]imidazole-5-carboxamide] | 4.9 ± 1.5 | 0.1 ± 0.03
3 | Cc1noc(C)c1-c1cc(-c2ccccc2Oc2ccccc2)cn2cncc12 [JS-5, 3,5-dimethyl-4-(6-(2-phenoxyphenyl)imidazo[1,5-a]pyridin-8-yl)isoxazole] | 20 ± 12 | 0.42 ± 0.265
4 | Cc1nn2c(c1-c1ccccc1OCc1ccccc1)N(C(=O)Cc1ccc3c(c1)OCO3)CCC2 [JS-8, 2-(benzo[d][1,3]dioxol-5-yl)-1-(3-(2-(benzyloxy)phenyl)-2-methyl-6,7-dihydropyrazolo[1,5-a]pyrimidin-4(5H)-yl)ethan-1-one] | 4.7 ± 0.3 | 0.1 ± 0.006
5 | CCC(CC)c1cc([C@H]2CN3CC[C@H]2C[C@@H]3CNS(=O)(=O)c2cccs2)nc(-c2ccncc2)n1 [JS-3, N-(((2R,4S,5R)-5-(6-(pentan-3-yl)-2-(pyridin-4-yl)pyrimidin-4-yl)quinuclidin-2-yl)methyl)thiophene-2-sulfonamide] | 12 ± 1.8 | 0.25 ± 0.036
6 | COc1cc(CN2CCC(C)(NC(C)=O)CC2)cc(-c2ccncc2)c1 [JS-4, N-(1-(3-methoxy-5-(pyridin-4-yl)benzyl)-4-methylpiperidin-4-yl)acetamide] | 11 ± 3.4 | 0.22 ± 0.07

More lines, now with the values ahead:

Row | IC50 [µM] | Ki [µM] | Structure (SMILES)
7 | 28 | 0.57 ± 0.0004 | Cc1nn2c(c1-c1ccccc1OCc1ccccc1)N(C(=O)Cc1ccccn1)CCC2 [JS-9, 1-(3-(2-(benzyloxy)phenyl)-2-methyl-6,7-dihydropyrazolo[1,5-a]pyrimidin-4(5H)-yl)-2-(pyridin-2-yl)ethan-1-one]
8 | 10 ± 2.2 | 0.21 ± 0.046 | N#Cc1ccccc1CN1CCCC(C(=O)NCc2ccccc2)CCNC(=O)CC1 (stereo not shown) [JS-13, N-benzyl-1-(2-cyanobenzyl)-4-oxo-1,5-diazacycloundecane-8-carboxamide]
9 | 15 ± 1.8 | 0.31 ± 0.037 | Cc1nn2c(c1-c1ccccc1Oc1ccccc1)N(C(=O)Cc1ccc3c(c1)OCO3)CCC2 [JS-10, 2-(benzo[d][1,3]dioxol-5-yl)-1-(2-methyl-3-(2-phenoxyphenyl)-6,7-dihydropyrazolo[1,5-a]pyrimidin-4(5H)-yl)ethan-1-one]
10 | 82 ± 68 | 1.69 ± 1.39 | COc1ccccc1-c1n[nH]c2ncc(C(=O)NCc3cccnc3)nc12 [JS-6, 3-(2-methoxyphenyl)-N-(pyridin-3-ylmethyl)-1H-pyrazolo[3,4-b]pyrazine-5-carboxamide]
11 | 15.8 ± 16 | 0.32 ± 0.329 | CN(Cc1ccccc1)C(=O)c1cn2ccnc(-c3ccccc3)c2n1 [JS-14, N-benzyl-N-methyl-8-phenylimidazo[1,2-a]pyrazine-2-carboxamide]
